Source: US20240316513A1, “METHOD AND APPARATUS FOR ON-SITE PREPARATION AND DOSING OF AN ENZYME-CONTAINING DETERGENT FORMULATION” (CHRISTEYNS, priority 2021, published 2024)

Key:
lipase enzyme [1] = biological target: T1, lipase enzyme (Thermomyces lanuginosus, UniProt O59952, N255R/T253R); experiment: Total hydrolysis of rapeseed oil in a wash process: effect of surfactants on lipase enzyme activity (free oleic acid by HPLC); assay type: biochemical; conditions: about 100 ppm by weight surfactant, about 0.2 g/litre lipase concentrate, pH about 9.6, about 50° C.; for effect of the surfactant on lipase activity in the washing liquor (in words): 2° fH, compared with blank and LES (Sample C); for lipase activity relative to the blank liquor (A), set at 100%: hardness 2° fH
T1 construct: purchased Novozymes LIPEX 100 L
Protocol: (§1) The total hydrolysis of rapeseed oil in a wash process was tested with washing liquors that were always comprising the same concentration of a lipase enzyme concentrate. A blank test was performed without any added surfactant. This blank test served as the reference with which could be compared the other results obtained with the same washing liquor samples into which one of a number of different non-ionic surfactants were added.
In the experiments, the lipase concentrate was always present in a concentration of about 0.2 gram of the concentrate per litre of total liquor.
The washing tests were performed at a temperature of about 50° C. The water in the formulations was demineralised water obtained by reverse osmosis (RO).
Different washing liquors were prepared containing about 100 ppm by weight of a selected surfactant, to be compared with a blank liquor containing only the lipase enzyme concentrate and no surfactants.
(§2) For each liquor was tested the appearance of free oleic acid generated from the hydrolysis of a standard amount of rapeseed oil with which the liquor was brought in contact. Monitored by High Performance Liquid Chromatography (HPLC) was the quantitative release of free oleic acid (C18:1 fatty acid) in the washing liquor and/or present on the textile, as explained in the protocols that are described in detail in our copending patent application having the attorney docket reference PAT2549761 EP00 and filed on the same day as this application. Because oleic acid is the main fatty acid in the triglycerides of rapeseed oil, the generation of this acid as free fatty acid it is an excellent quantitative marker for the hydrolysis of rapeseed oil, in this context thus also for the activity of the lipase enzyme.
A series of tests were performed using washing liquors having a hardness of 2° fH. […] For each surfactant choice 2 duplicate samples were tested, except for Sample J (3 duplicates) and Sample K (only 1 sample tested). […] Also shown for each bar with a surfactant is an error bar showing the difference between the lowest and the highest of the duplicates.

lipase enzyme [2] = biological target: T1, lipase enzyme; experiment: Effect of surfactant concentration on lipase activity in the washing liquor; assay type: biochemical
Protocol: as §1, §2
Extra experiments were performed with 5EO-isoC13 surfactant.

T1 sequence (O59952 23-291 T253R/N255R): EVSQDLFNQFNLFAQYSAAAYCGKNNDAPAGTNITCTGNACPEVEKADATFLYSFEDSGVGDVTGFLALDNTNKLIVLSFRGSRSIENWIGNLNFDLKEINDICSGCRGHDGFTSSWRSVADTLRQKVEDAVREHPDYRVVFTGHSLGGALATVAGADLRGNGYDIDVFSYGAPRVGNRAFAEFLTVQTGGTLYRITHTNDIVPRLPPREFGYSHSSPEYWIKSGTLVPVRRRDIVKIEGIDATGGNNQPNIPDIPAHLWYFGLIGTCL

Row | Substance | effect of the surfactant on lipase activity in the washing liquor (in words) (lipase enzyme [1]) | also measured
1 | 5EO-C13-C15 [M] | relatively benign | 
2 | 5EO-isoC13 | not better than the conventional LES surfactant | surfactant concentration at which the suppressing activity on lipase becomes noticeable (lipase enzyme [2]): 10 ppm by weight; surfactant concentration until which the suppressing effect further grows (lipase enzyme [2]): about 100 ppm by weight; suppressing effect when further increasing the surfactant presence (lipase enzyme [2]; from about 100 up to 250 ppm by weight surfactant): remains about the same
3 | 7EO-C13-15 [N] | much larger depressing effect | 
4 | 7EO-isoC13 [F] | not better than the conventional LES surfactant | 
5 | 9EO-isoC13 [G] | not better than the conventional LES surfactant | 
6 | 10EO-isoC13 [H] | not better than the conventional LES surfactant | 
7 | C8-C10 APG-DP of 1.7 [Sample K] | much lower depressing effect | 
8 | C8-C10 alkyl polyglucoside (APG) with an average degree of polymerisation (DP) of 1.5 | much lower depressing effect | 
9 | C8-C16 APG-DP of 1.5 [Sample J] | much lower depressing effect | 
10 | C9-C11 fatty alcohol alkoxylated with an average ethoxylation degree of about 6 and an average propoxylation degree of about 4 [Sample O] | worse than the LES reference | 
11 | C12-C14 amine oxide [P] | significant boost | 
12 | Lauryl ether sulphate [Sample C] |  | lipase activity relative to the blank liquor (A), set at 100% (lipase enzyme [1]): about 40%
13 | Linear Alkyl Benzene Sulphonate [Sample B] |  | lipase activity relative to the blank liquor (A), set at 100% (lipase enzyme [1]): 12%
14 | a mixture of linear C13-C15 alcohol that has been ethoxylated to an average degree of about 3 | relatively benign | 
15 | isotridecyl alcohol ethoxylated to an average degree of ethoxylation of about 3 | not better than the conventional LES surfactant | 
